Measurements taken from ChEMBL document CHEMBL5241110, “Medicines for millions of patients” (RSC Med Chem, 2022).

Key:
[1] = tested on: Pancuronium; assay: Binding affinity to pancuronium
[2] = tested on: Rocuronium; assay: Binding affinity to rocuronium by ITC method

| Compound | Ka [1] [M⁻¹] | Ka [2] |
| --- | --- | --- |
| CC(=O)O[C@@H]1C[C@H]2CCC3C4C[C@H]([N+]5(C)CCCCC5)[C@H](OC(C)=O)[C@@]4(C)CCC3[C@@]2(C)C[C@@H]1[N+]1(C)CCCCC1 (some centres not stated) | 167 |  |
| O=C(O)CCSC[C@H]1O[C@@H]2O[C@H]3[C@H](O)[C@@H](O)[C@@H](O[C@H]4[C@H](O)[C@@H](O)[C@@H](O[C@H]5[C@H](O)[C@@H](O)[C@@H](O[C@H]6[C@H](O)[C@@H](O)[C@@H](O[C@H]7[C@H](O)[C@@H](O)[C@@H](O[C@H]8[C@H](O)[C@@H](O)[C@@H](O[C@H]9[C@H](O)C(O)[C@@H](O[C@H]1[C@H](O)[C@H]2O)O[C@@H]9CSCCC(=O)O)O[C@@H]8CSCCC(=O)O)O[C@@H]7CSCCC(=O)O)O[C@@H]6CSCCC(=O)O)O[C@@H]5CSCCC(=O)O)O[C@@H]4CSCCC(=O)O)O[C@@H]3CSCCC(=O)O (some centres not stated) |  | 1.05 10^7 M^-1 |
